Source: ChEMBL document CHEMBL1149049, “Increased feline cerebral blood flow induced by dehydroevodiamine hydrochloride from Evodia rutaecarpa” (J Nat Prod, 1994)
Activity calls are given as the source filed them. No cut-off for these calls is given here.

Tested on: Felis catus
Assay: Increase in cerebral blood flow in anesthetized cat suprasylvian gyrus at 0.3 mg/kg, iv
Assay type: functional, organism-based
Set-up: dose 0.3 mg/kg

For `C[n+]1c2n(c(=O)c3ccccc31)CCc1c-2[nH]c2ccccc12`, the Activity was “Active”.
